Experimental data reported in publication PMC4549746, “Zearalenone in the Intestinal Tissues of Immature Gilts Exposed per os to Mycotoxins” (Toxins, 2015).
Where “and” joins values, the source holds several entries; their conditions need not be identical. Equal values may be shown once. Read-outs that look alike come from different tables or passages of the source.

Experiment: ZEN concentrations and carryover factor in intestinal tissues and liver of pre-pubertal gilts exposed per os (HPLC)
Type: in vivo
Conditions: 40 μg/kg BW daily per os; for concentration at 4 weeks / concentration at 5 weeks / concentration at 1 week / concentration at 2 weeks / concentration at 3 weeks / concentration at 6 weeks: female, pig, oral
Description: The animals were divided into an experimental group (E, n = 18) and a control group (C, n = 21). Group E animals were orally administered ZEN at 40 μg/kg BW. Group C pigs were fed a placebo. The animals were fed complete diets in a restricted feeding regimen (Table 1). The daily dose of ZEN (40 µg/kg BW) was administered to each animal individually, which corresponds to exposure to 957–1014 µg ZEN/kg of a complete diet, depending on daily feed intake. Zearalenone was biosynthesized, purified and standardized by the Department of Chemistry of the Poznań University of Life Sciences. The experiment covered a period of 42 days. The mycotoxin was administered per os daily, in gelatine capsules before the morning feeding. The ZEN dose was adjusted to the body weight of the experimental animals. The mycotoxin was administered in capsules to prevent problems associated with uneven feed intake. Mycotoxin samples were diluted in 300 μL of 96% ethyl alcohol (96% ethyl alcohol, SWW 2442-90, Polskie Odczynniki Chemiczne SA, Gliwice, Poland) to the required dose level (based on body weight). Final solutions were stored at room temperature for 12 h to evaporate the solvent. The animals were weighed every 7 days to update mycotoxin doses for each gilt. Three animals from the experimental group and the control group each were sacrificed on Days 1, 7, 14, 21, 28, 35 and 42 (a total of 6 gilts in each week of exposure), excluding day 1, when only 3 control group animals were scarified. Every week, tissue samples were collected from the porcine gastrointestinal tract (duodenum, first and middle sections, jejunum, ileum, cecum, ascending colon, transverse colon, descending colon, middle section, and the liver, left lobe). Tissue samples were collected from the whole intestinal cross-sections.
Post-mortem tissue samples were collected from the duodenum, jejunum, ileum, cecum, ascending colon, transverse colon, descending colon and the liver after rinsing with phosphate buffer. Pure tissues were stored at −80 °C until shredding and extraction.
Tissue samples (2 g) were homogenized with 9 cm^3 of methanol for 4 min; they were transferred to centrifuge tubes with a minimal amount of the sediment, and the remainder was combined with 5 cm^3 of methanol and repeatedly homogenized. The extracts were combined and centrifuged for 10 min. The supernatant was transferred to a graduated test tube; its volume was read from the scale, and it was evaporated under a stream of nitrogen at a temperature of 60 °C to 0.1–0.2 cm^3 of water. The evaporated product was combined with 2 cm^3 of deionized water, 2 cm^3 of 0.2 M sodium acetate and 500 µL of […] solution. After 16 h of incubation at 37 °C, the reaction was stopped by adding 0.5 cm^3 of acetonitrile. The mixture was quantitatively transferred to a centrifuge tube; it was combined with 10 cm^3 of deionized water and centrifuged for 10 min at 3500 rpm. The supernatant was applied to the Zearala-Test™ column at the rate of 1–2 drops per second. Mycotoxins were eluted from the column with 1.5 mL of methanol; the solvent was evaporated, and the residue was reconstituted with 1 mL of methanol for HPLC analysis.
The concentrations of ZEN and its derivatives were determined by HPLC with the use of the Waters 2695 Separations Module, Waters 2475 Multi λ Fluorescence Detector and Waters 2996 Array Detector. Excitation and emission wavelengths were 274 and 440 nm, respectively. The reverse-phase column was C-18 Nova Pak (3.9 × 150 mm), and the mobile phase was acetonitrile-water-methanol (46:46:8, v/v/v) at a flow rate of 0.5 mL·min^−1. The mycotoxins were quantified by measuring the […] of the peaks based on the relevant calibration curves (correlation coefficient of 0.9996 for ZEN, 0.9989 for α-ZEL and 0.9976 for β-ZEL). Detection limits were determined at 0.001 µg·g^−1 for ZEN, 0.003 µg·g^−1 for α-ZEL and 0.002 µg·g^−1 for β-ZEL. […]

[1] = Week I of exposure, total ZEN dose 280 µg/kg BW
[2] = Week II of exposure, total ZEN dose 560 µg/kg BW
[3] = Week III of exposure, total ZEN dose 840 µg/kg BW
[4] = Week IV of exposure, total ZEN dose 1120 µg/kg BW
[5] = Week V of exposure, total ZEN dose 1400 µg/kg BW
[6] = Week VI of exposure, total ZEN dose 1680 µg/kg BW

SMILES: C[C@H]1CCCC(=O)CCC/C=C/c2cc(O)cc(O)c2C(=O)O1 [ZEN, zearalenone]
- Carryover Factor (CF), Ascending Colon [1]: 0.0054
- Carryover Factor (CF), Cecum [1]: 0.0162
- Carryover Factor (CF), Descending Colon [1]: 0.0167
- Carryover Factor (CF), Duodenum [1]: 0.031
- Carryover Factor (CF), Ileum [1]: 0.016
- Carryover Factor (CF), Jejunum [1]: 0.035
- Carryover Factor (CF), Liver [1]: 0.0225
- Carryover Factor (CF), Transverse Colon [1]: 0.0049
- Carryover Factor (CF), Ascending Colon [2]: 0.0028
- Carryover Factor (CF), Cecum [2]: 0.0075
- Carryover Factor (CF), Descending Colon [2]: 0.0121
- Carryover Factor (CF), Duodenum [2]: 0.022
- Carryover Factor (CF), Ileum [2]: 0.009
- Carryover Factor (CF), Jejunum [2]: 0.035
- Carryover Factor (CF), Liver [2]: 0.0139
- Carryover Factor (CF), Transverse Colon [2]: 0.0082
- Carryover Factor (CF), Ascending Colon [3]: 0.0037
- Carryover Factor (CF), Descending Colon [3]: 0.0090
- Carryover Factor (CF), Duodenum [3]: 0.014
- Carryover Factor (CF), Ileum [3]: 0.008
- Carryover Factor (CF), Jejunum [3]: 0.016
- Carryover Factor (CF), Liver [3]: 0.0154
- Carryover Factor (CF), Transverse Colon [3]: 0.0046
- Carryover Factor (CF), Ascending Colon [4]: 0.0042
- Carryover Factor (CF), Cecum [4]: 0.0030
- Carryover Factor (CF), Descending Colon [4]: 0.1830
- Carryover Factor (CF), Duodenum [4]: 0.019
- Carryover Factor (CF), Ileum [4]: 0.004
- Carryover Factor (CF), Jejunum [4]: 0.039
- Carryover Factor (CF), Liver [4]: 0.0162
- Carryover Factor (CF), Transverse Colon [4]: 0.0065
- ZEN Concentrations (x¯ and SD), Ascending Colon [4]: 4.69 ± 0.45 ng/g
- ZEN Concentrations (x¯ and SD), Descending Colon [4]: 205.01 ± 94.70 ng/g
- ZEN Concentrations (x¯ and SD), Jejunum [4]: 43.82 ± 7.63 ng/g
- ZEN Concentrations (x¯ and SD), Transverse Colon [4]: 7.37 ± 1.66 ng/g
- Carryover Factor (CF), Ascending Colon [5]: 0.0024
- Carryover Factor (CF), Cecum [5]: 0.0129
- Carryover Factor (CF), Descending Colon [5]: 0.1264
- Carryover Factor (CF), Duodenum [5]: 0.091
- Carryover Factor (CF), Ileum [5]: 0.002
- Carryover Factor (CF), Jejunum [5]: 0.010
- Carryover Factor (CF), Liver [5]: 0.0142
- Carryover Factor (CF), Transverse Colon [5]: 0.0046
- ZEN Concentrations (x¯ and SD), Cecum [5]: 18.17 ± 5.02 ng/g
- ZEN Concentrations (x¯ and SD), Duodenum [5]: 128 ng/g and 128.18 ± 64.54 ng/g
- Carryover Factor (CF), Ascending Colon [6]: 0.0014
- Carryover Factor (CF), Cecum [6]: 0.0081
- Carryover Factor (CF), Descending Colon [6]: 0.0666
- Carryover Factor (CF), Duodenum [6]: 0.048
- Carryover Factor (CF), Ileum [6]: 0.016
- Carryover Factor (CF), Jejunum [6]: 0.005
- Carryover Factor (CF), Liver [6]: 0.0136
- Carryover Factor (CF), Transverse Colon [6]: 0.0039
- ZEN Concentrations (x¯ and SD), Ileum [6]: 27.52 ± 10.28 ng/g
- ZEN Concentrations (x¯ and SD), Liver [6]: 23.00 ± 0.79 ng/g
- CF, Average values, Ascending Colon (average of Weeks I-VI): 0.0033
- CF, Average values, Cecum (average of Weeks I-VI): 0.0089
- CF, Average values, Descending Colon (average of Weeks I-VI): 0.0688
- CF, Average values, Duodenum (average of Weeks I-VI): 0.0375
- CF, Average values, Ileum (average of Weeks I-VI): 0.0091
- CF, Average values, Jejunum (average of Weeks I-VI): 0.0233
- CF, Average values, Liver (average of Weeks I-VI): 0.0159
- CF, Average values, Transverse Colon (average of Weeks I-VI): 0.0054
- ZEN concentration, Average values, Ascending Colon (average of Weeks I-VI): 2.805 ng/g
- ZEN concentration, Average values, Descending Colon (average of Weeks I-VI): 85.525 ng/g
- ZEN concentration, Average values, Duodenum (average of Weeks I-VI): 43.93 ng/g
- ZEN concentration, Average values, Ileum (average of Weeks I-VI): 8.705 ng/g
- ZEN concentration, Average values, Jejunum (average of Weeks I-VI): 18.208 ng/g
- ZEN concentration, Average values, Liver (average of Weeks I-VI): 14.72 ng/g
- average ileal concentrations of ZEN (between Week I and Week V): 4.9 ng/g
- concentration at 4 weeks (ascending colon, 40 μg/kg BW daily, Week IV of exposure, total ZEN dose 1120 µg/kg BW, read-out: ZEN Concentrations (x¯ and SD), Ascending Colon): 4.7 ng/g
- concentration at 5 weeks (ascending colon, 40 μg/kg BW daily, Week V of exposure, total ZEN dose 1400 µg/kg BW, read-out: ZEN Concentrations (x¯ and SD), Ascending Colon): 3.4 ± 0.54 ng/g
- concentration at 1 week (ascending colon, 40 μg/kg BW, Week I of exposure, total ZEN dose 280 µg/kg BW, read-out: ZEN Concentrations (x¯ and SD), Ascending Colon): 1.53 ± 1.95 ng/g
- concentration at 2 weeks (ascending colon, 40 μg/kg BW, Week II of exposure, total ZEN dose 560 µg/kg BW, read-out: ZEN Concentrations (x¯ and SD), Ascending Colon): 1.59 ± 2.76 ng/g
- concentration at 3 weeks (ascending colon, 40 μg/kg BW, Week III of exposure, total ZEN dose 840 µg/kg BW, read-out: ZEN Concentrations (x¯ and SD), Ascending Colon): 3.16 ± 1.79 ng/g
- concentration at 6 weeks (ascending colon, 40 μg/kg BW, Week VI of exposure, total ZEN dose 1680 µg/kg BW, read-out: ZEN Concentrations (x¯ and SD), Ascending Colon): 2.46 ± 1.92 ng/g
- concentration at 5 weeks (cecum, 40 μg/kg BW daily, Week V of exposure, total ZEN dose 1400 µg/kg BW, read-out: ZEN Concentrations (x¯ and SD), Cecum): 18.2 ng/g
- concentration at 6 weeks (cecum, 40 μg/kg BW, Week VI of exposure, total ZEN dose 1680 µg/kg BW, read-out: ZEN Concentrations (x¯ and SD), Cecum): 13.7 ± 1.17 ng/g
- concentration at 4 weeks (descending colon, 40 μg/kg BW daily, Week IV of exposure, total ZEN dose 1120 µg/kg BW, read-out: ZEN Concentrations (x¯ and SD), Descending Colon): 205 ng/g
- concentration at 5 weeks (descending colon, 40 μg/kg BW daily, Week V of exposure, total ZEN dose 1400 µg/kg BW, read-out: ZEN Concentrations (x¯ and SD), Descending Colon): 177 ± 50.6 ng/g
- concentration at 6 weeks (descending colon, 40 μg/kg BW, Week VI of exposure, total ZEN dose 1680 µg/kg BW, read-out: ZEN Concentrations (x¯ and SD), Descending Colon): 112 ± 13.7 ng/g
- concentration at 1 week (duodenum, 40 μg/kg BW daily, Week I of exposure, total ZEN dose 280 µg/kg BW, read-out: ZEN Concentrations (x¯ and SD), Duodenum): 8.6 ng/g
- concentration at 5 weeks (duodenum, 40 μg/kg BW daily, Week V of exposure, total ZEN dose 1400 µg/kg BW, read-out: ZEN Concentrations (x¯ and SD), Duodenum): 128 ng/g
- concentration at 6 weeks (duodenum, 40 μg/kg BW, Week VI of exposure, total ZEN dose 1680 µg/kg BW, read-out: ZEN Concentrations (x¯ and SD), Duodenum): 80.7 ± 4.34 ng/g
- concentration at 6 weeks (ileum, 40 μg/kg BW daily, Week VI of exposure, total ZEN dose 1680 µg/kg BW, read-out: ZEN Concentrations (x¯ and SD), Ileum): 27.5 ng/g
- concentration at 4 weeks (jejunum, 40 μg/kg BW daily, Week IV of exposure, total ZEN dose 1120 µg/kg BW, read-out: ZEN Concentrations (x¯ and SD), Jejunum): 43.8 ng/g
- concentration at 6 weeks (jejunum, 40 μg/kg BW daily, Week VI of exposure, total ZEN dose 1680 µg/kg BW, read-out: ZEN Concentrations (x¯ and SD), Jejunum): 8.3 ng/g
- concentration at 4 weeks (liver, 40 μg/kg BW daily, Week IV of exposure, total ZEN dose 1120 µg/kg BW, read-out: ZEN Concentrations (x¯ and SD), Liver): 18.2 ± 5.92 ng/g
- concentration at 5 weeks (liver, 40 μg/kg BW daily, Week V of exposure, total ZEN dose 1400 µg/kg BW, read-out: ZEN Concentrations (x¯ and SD), Liver): 20 ± 2.43 ng/g
- concentration at 6 weeks (liver, 40 μg/kg BW daily, Week VI of exposure, total ZEN dose 1680 µg/kg BW, read-out: ZEN Concentrations (x¯ and SD), Liver): 23 ng/g
- concentration at 3 weeks (liver, 40 μg/kg BW, Week III of exposure, total ZEN dose 840 µg/kg BW, read-out: ZEN Concentrations (x¯ and SD), Liver): 13 ± 1.78 ng/g
- concentration at 4 weeks (transverse colon, 40 μg/kg BW daily, Week IV of exposure, total ZEN dose 1120 µg/kg BW, read-out: ZEN Concentrations (x¯ and SD), Transverse Colon): 7.4 ng/g
- concentration at 5 weeks (transverse colon, 40 μg/kg BW daily, Week V of exposure, total ZEN dose 1400 µg/kg BW, read-out: ZEN Concentrations (x¯ and SD), Transverse Colon): 6.49 ± 0.96 ng/g
- concentration at 2 weeks (transverse colon, 40 μg/kg BW, Week II of exposure, total ZEN dose 560 µg/kg BW, read-out: ZEN Concentrations (x¯ and SD), Transverse Colon): 4.63 ± 3.86 ng/g
- concentration at 3 weeks (transverse colon, 40 μg/kg BW, Week III of exposure, total ZEN dose 840 µg/kg BW, read-out: ZEN Concentrations (x¯ and SD), Transverse Colon): 3.94 ± 0.57 ng/g
- concentration at 6 weeks (transverse colon, 40 μg/kg BW, Week VI of exposure, total ZEN dose 1680 µg/kg BW, read-out: ZEN Concentrations (x¯ and SD), Transverse Colon): 6.7 ± 0.25 ng/g
